We go through 9 compounds from ChEMBL document CHEMBL5233254, “Anticancer fungal natural products: Mechanisms of action and biosynthesis” (Eur J Med Chem, 2020).

Converted amounts (≈) assume the structure as drawn.

The inhibition is how much of the control response was suppressed. The term IC50 denotes the concentration that gives 50% inhibition. As a reminder, the Kd is the equilibrium constant for the complex coming apart. The term EC50 denotes the concentration giving half of the maximal effect.

For data set [1], the target named is Tubulin (Homo sapiens) (UniProt P68371+Q9H4B7+P0DPH7+P68366+Q13509+Q71U36+P04350+Q3ZCM7+P07437+P68363+Q9BQE3+Q6PEY2+Q13885+Q9BVA1+Q9BUF5). Kind of data set: Inhibition of microtubule polymerization in human HeLa cells at 20 uM relative to control. Type of data set: cell-based.
The subject of data set [2] is HeLa. Nature of the data set: Antimitotic activity against human HeLa cells. Type of data set: functional, cell-based.
Data set [3] has as its target Tubulin. Kind of data set: Binding affinity to tubulin (unknown origin) assessed as dissociation constant. Type of data set: protein-complex assay, Homo sapiens.
Data set [4] can be described thus: Inhibition of full-length human MEK.
Data set [5] can be described thus: Anti-tumor activity against mouse lewis lung carcinoma cells allografted in mouse assessed as reduction in tumor growth at 2 mg/kg, po. Set-up: scale not given: the % may be the effect or the level left. Type of data set: functional.
A short description of data set [6]: Inhibition of V-ATPase (unknown origin). Set-up: species or system Homo sapiens.
A short description of data set [7]: Cytotoxicity against human endothelial cells. Type of data set: toxicity, cell-based. The conditions noted are these: endothelial cell.
Data set [8] in a line: Inhibition of PI3K (unknown origin). More on the design: species or system Homo sapiens.
Data set [9] deals with 14-3-3 eta/c-RAF (Homo sapiens, UniProt P04049+Q04917). Kind of data set: Stabilization of 14-3-3 eta (unknown origin)/ c-Raf (unknown origin). Type of data set: protein-complex assay.
Sequence of 14-3-3 eta/c-RAF (P04049 whole entry): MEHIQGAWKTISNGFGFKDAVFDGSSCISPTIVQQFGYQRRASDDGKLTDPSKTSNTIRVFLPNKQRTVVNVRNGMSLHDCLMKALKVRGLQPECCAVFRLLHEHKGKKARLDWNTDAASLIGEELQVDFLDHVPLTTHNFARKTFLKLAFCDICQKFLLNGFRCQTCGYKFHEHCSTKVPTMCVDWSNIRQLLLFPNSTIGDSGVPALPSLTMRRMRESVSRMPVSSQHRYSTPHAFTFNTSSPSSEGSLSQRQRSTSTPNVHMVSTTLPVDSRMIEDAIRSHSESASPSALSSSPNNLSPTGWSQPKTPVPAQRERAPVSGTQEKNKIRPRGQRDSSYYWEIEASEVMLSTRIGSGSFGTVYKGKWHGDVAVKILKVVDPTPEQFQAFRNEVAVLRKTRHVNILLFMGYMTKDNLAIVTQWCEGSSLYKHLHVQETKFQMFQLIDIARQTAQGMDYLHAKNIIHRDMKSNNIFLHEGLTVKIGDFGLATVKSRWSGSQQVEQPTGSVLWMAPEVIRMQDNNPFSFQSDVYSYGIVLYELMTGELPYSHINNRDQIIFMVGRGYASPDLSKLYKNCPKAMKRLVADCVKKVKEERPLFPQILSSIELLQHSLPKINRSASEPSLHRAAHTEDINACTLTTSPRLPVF
Sequence of 14-3-3 eta/c-RAF (Q04917 whole entry): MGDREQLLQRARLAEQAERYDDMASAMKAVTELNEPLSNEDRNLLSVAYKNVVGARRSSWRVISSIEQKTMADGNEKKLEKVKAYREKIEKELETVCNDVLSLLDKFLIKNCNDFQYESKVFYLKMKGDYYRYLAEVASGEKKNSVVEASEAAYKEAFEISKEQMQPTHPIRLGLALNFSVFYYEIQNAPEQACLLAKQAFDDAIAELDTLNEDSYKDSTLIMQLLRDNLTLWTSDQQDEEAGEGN
Data set [10] deals with T1, Heat shock factor protein 1 (Homo sapiens, UniProt Q00613).
T1 sequence (Q00613 whole entry): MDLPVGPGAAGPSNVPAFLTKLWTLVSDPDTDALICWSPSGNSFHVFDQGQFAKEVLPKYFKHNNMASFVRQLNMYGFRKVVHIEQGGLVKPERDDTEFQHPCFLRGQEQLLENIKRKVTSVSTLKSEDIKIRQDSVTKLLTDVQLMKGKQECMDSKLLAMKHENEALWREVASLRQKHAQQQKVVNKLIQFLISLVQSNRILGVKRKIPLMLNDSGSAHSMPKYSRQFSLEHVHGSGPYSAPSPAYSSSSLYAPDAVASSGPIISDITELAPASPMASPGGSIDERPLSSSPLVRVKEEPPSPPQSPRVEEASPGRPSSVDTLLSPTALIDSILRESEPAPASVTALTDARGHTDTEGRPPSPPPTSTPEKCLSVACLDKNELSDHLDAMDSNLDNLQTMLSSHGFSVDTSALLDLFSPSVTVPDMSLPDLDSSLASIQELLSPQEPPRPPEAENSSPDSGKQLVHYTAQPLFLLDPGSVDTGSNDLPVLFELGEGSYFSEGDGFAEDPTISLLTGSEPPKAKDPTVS
Nature of the data set: Induction of HSF-1 (unknown origin) degradation assessed as ATPase activity by colorimetric assay.

The subject of data set [11] is MCF7. Nature of the data set: Cytotoxicity against human MCF7 cells. Type of data set: functional, cell-based.

In data set [1], `COC1=CC(=O)C[C@@H](C)[C@]12Oc1c(Cl)c(OC)cc(OC)c1C2=O` [GRISEOFULVIN] showed an inhibition of 75%. In addition, in data set [2], the IC50 turned out to be 25 µM. Further, the Kd in data set [3] came to 300 µM. `COc1cc(O)c2c(c1)CCC[C@H](O)[C@H](O)C(=O)/C=C\C[C@H](C)OC2=O` registered an IC50 in data set [4] of 4 µM.

As for `C[C@H]1C/C=C/[C@H]2[C@@H]3O[C@]3(C)[C@@H](C)[C@H]3[C@H](Cc4ccccc4)NC(=O)[C@]32OC(=O)O/C=C/[C@@](C)(O)C1=O` [CYTOCHALASIN E], the Activity in data set [5] is recorded as 72%.

In the case of `CC[C@@H](C)[C@@H]1NC(=O)[C@H]2CCCN2C(=O)[C@@H](CC(C)C)OC(=O)CCNC(=O)[C@H](C)N(C)C(=O)[C@H](C(C)C)N(C)C1=O`, in data set [6], inhibition was half-maximal at 5.4 µM (IC50). `CO[C@@H]1[C@H](OC(=O)NC(=O)CCl)CC[C@]2(CO2)[C@H]1[C@@]1(C)O[C@@H]1CC=C(C)C` [O-CHLOROACETYLCARBAMOYLFUMAGILLOL]: the IC50 in data set [7] worked out at 0.01 ng/mL (≈ 0.0249 nM). With `C[C@@]12c3ccc4c(c3C(=O)c3occ(c31)C(=O)C[C@H]2O)CCC4=O` [DEMETHOXYVIRIDIN], the IC50 in [8] is 0.0066 µM. `COC[C@H]1O[C@@H](O[C@@H]2C3=C(C(C)C)CC[C@]3(C)/C=C3\[C@@H](CC[C@]3(O)COC)[C@@H](C)[C@H]2O)[C@H](O)[C@H]2OC3O[C@]21O[C@@]3(C)[C@@H]1CO1` returned an EC50 in data set [9] of 60 µM. On to `C[C@H]1CCC/C=C/C(=O)c2c(O)cc(O)cc2CC(=O)O1` [DEHYDROCURVULARIN], for which the IC50 in data set [10] turned out to be 15.3 µM. Take `C[C@]12CCC3=C(C(=O)c4occ5c4[C@]3(C)CCC5=O)[C@@H]1CC[C@@H]2O`: the IC50 in [11] worked out at 15 µM.
